Data: EPA's aquatic toxicity sets

What follows are compounds tested on Tetrahymena pyriformis (assay: 48 h IGC50 (-log10 mol/L); higher = more toxic).

Row | SMILES | 48 h IGC50 (-log10 mol/L)
1 | Nc1c(Cl)cc([N+](=O)[O-])cc1[N+](=O)[O-] | 4.12
2 | CCCCCCCC(=O)OC | 3.54
3 | Cc1cc(C)c(O)c(N)c1 | 3.89
4 | CCC(Cl)C(N)=O (configuration not stated) | 1.78
5 | CCCCCC#CC=O | 4.72
6 | CC=C(C)C(=O)OCC | 2.5
7 | NCCc1ccc(Cl)cc1 | 3.14
8 | C=C(C)C(=O)OCCCCCC | 4.09
9 | COc1ccc([N+](=O)[O-])cn1 | 2.99
10 | OC12CC3CC(CC(C3)C1)C2 | 2.92
11 | CCOC(=O)C(Br)CC (configuration not stated) | 3.76
12 | OCc1ccccc1I | 3.33
13 | O=C(O)c1ccc(O)cc1 | 1.98
14 | OCc1ccc(Cl)cc1 | 3.25
15 | C/C=C(\C)C=O | 2.86
16 | O=[N+]([O-])c1cc(Cl)ccc1O | 5.12
17 | N#Cc1cccnc1 | 2.26
18 | COc1cc(C=O)cc(OC)c1O | 3.17
19 | O/N=C\c1ccccc1 | 2.89
20 | c1ccc(Cc2ccccn2)cc1 | 3.38
21 | O=[N+]([O-])c1cc([N+](=O)[O-])c(F)cc1F | 5.08
22 | O=C(O)CCCCCBr | 3.03
23 | COC(=O)c1ccc(C#N)cc1 | 2.95
24 | O=C(Oc1ccccc1)c1ccc(O)cc1 | 4.37

Row | SMILES | 48 h IGC50 (-log10 mol/L)
25 | CCOC(=O)CCCCCCC(=O)OCC | 3.7
26 | CCCCC(=O)C(C)=O | 3.04
27 | COc1cccc(Cl)c1 | 3.29
28 | O=[N+]([O-])c1cccc(Br)c1 | 4.03
29 | O=[N+]([O-])c1cc(O)ccc1Cl | 4.27
30 | Oc1c(F)c(F)c(F)c(F)c1F | 4.63
31 | CCOC(=O)c1ccc(F)cc1 | 3.01
32 | CC(C)N | 2.14
33 | COC(=O)CCBr | 4.03
34 | COc1cccc2ccccc12 | 3.8
35 | Oc1ccc(N=Nc2ccccc2)cc1 | 4.66
36 | C=CCSc1ccccc1 | 3.69
37 | CN(C)Cc1ccccc1 | 3.12
38 | O=[N+]([O-])c1ccc(CO)cc1 | 3.12
39 | CC(CCO)c1ccccc1 (configuration not stated) | 3.01
40 | CC(O)CCC(C)O (configuration not stated) | 1.04
41 | Nc1cccc(I)c1 | 3.65
42 | CCOC(=O)CCl | 4.06
43 | O=Cc1cc(Cl)cc(Cl)c1O | 4.55
44 | Cc1ccc(Br)cc1 | 3.47
45 | CCCCCCCCCOC(=O)c1ccc(O)cc1 | 5.63
46 | CCC#CCCO | 1.98
47 | ClC(Cl)c1ccccc1 | 3.11
48 | CCOC(=O)CBr | 5.68

Row | SMILES | 48 h IGC50 (-log10 mol/L)
49 | CC(=O)c1cccs1 | 2.41
50 | CCOC(=O)C(Br)C(=O)OCC | 5.21
51 | OC1CCCCC1 | 2.23
52 | O=Cc1ccc(-c2ccccc2)cc1 | 4.12
53 | CCCCCCCCCCO | 4.33
54 | CC#Cc1ccccc1 | 3.19
55 | Clc1ccc(Br)s1 | 3.75
56 | Clc1cccc2ccccc12 | 3.81
57 | Cc1ccc([N+](=O)[O-])cc1F | 3.33
58 | Cc1nccnc1C | 2.13
59 | Cc1ccsc1 | 2.3
60 | NC(=O)c1cccs1 | 2.03
61 | CC(C)=CCO | 1.76
62 | O=[N+]([O-])c1cc(Br)ccc1O | 4.87
63 | NCc1ccccc1 | 2.76
64 | C#CC=CCO | 2.44
65 | CCCCCCCCNC(N)=S | 4.51
66 | CCCc1ccc(O)cc1 | 3.64
67 | CCc1cccc(O)c1 | 3.29
68 | CCCCCCC(Br)C(=O)OCC (configuration not stated) | 4.5
69 | O=Cc1cc(O)ccc1O | 3.28
70 | O=C(c1ccccc1)c1cccc(Cl)c1 | 4.55
71 | CCOC(=O)Cc1cccs1 | 3.27
72 | CCCCCCC#CCCO | 4.13

Row | SMILES | 48 h IGC50 (-log10 mol/L)
73 | CCCCCCN | 2.78
74 | O=C(NO)c1ccccc1O | 3.38
75 | C#CC(O)C(C)CCC (configuration not stated) | 3.74
76 | N#Cc1ccccc1[N+](=O)[O-] | 4.08
77 | CCCCC(N)CO (configuration not stated) | 2.42
78 | Cc1cc(C)c(O)c(C(C)(C)C)c1 | 4.16
79 | N#Cc1ccccc1Cl | 3.28
80 | NCC(O)CN | 1.57
81 | CCCCC#N | 1.99
82 | CC(C)c1ccccc1N | 3.12
83 | CCCCCCO | 2.62
84 | CC(C)(C)OC=O | 1.63
85 | CCCCCCCCCC=CCO | 5.09
86 | Cc1[nH]cnc1C=O | 2.07
87 | O=Cc1cccc(O)c1O | 3.11
88 | CCCCCOC(C)=O | 3.16
89 | CC(C)CN | 2.74
90 | O=Cc1cc(Br)c(O)c(Br)c1 | 3.89
91 | CCCNCCO | 1.32
92 | O=C(OCc1ccccc1)c1ccccc1 | 4.45
93 | CCC(CC)COC(C)=O | 2.88
94 | CC(C)(O)Cc1ccccc1 | 2.59
95 | Nc1c([N+](=O)[O-])cccc1[N+](=O)[O-] | 3.84
96 | CC(=O)C(Cl)C(C)=O | 4.44

Row | SMILES | 48 h IGC50 (-log10 mol/L)
97 | O=Cc1ccccc1Br | 3.48
98 | Cc1cc(C)cc(N)c1 | 2.64
99 | CCC(=O)OC(C)(C)C | 2.59
100 | CCc1ccccc1O | 3.16
101 | CCC(=O)C(=O)CC | 2.99
102 | CCCCCCC=O | 3
103 | O=[N+]([O-])c1ccccc1-c1ccccc1 | 4.3
104 | N#CSCc1ccccc1 | 4.05
105 | N#Cc1cccc2ccccc12 | 3.69
106 | O=C(O)c1cc(Cl)ccc1O | 2.6
107 | O=Cc1cc(Cl)cc(Cl)c1Cl | 4.72
108 | N#CCc1ccc(N)cc1 | 2.24
109 | CCCCNC(=S)NCCCC | 3.86
110 | CCCCCCCCCCCN | 5.33
111 | CCCCCCC#CCO | 3.65
112 | C=CC(=O)OCCCCCCC | 4.09
113 | CCCCOC(=O)CC | 3.17
114 | CCOc1cccc2ccccc12 | 4.25
115 | O=C/C=C/c1ccccc1 | 3.68
116 | C=CCBr | 3.57
117 | C=CCC(C)O (configuration not stated) | 1.48
118 | Cc1cc[nH]c(=O)c1[N+](=O)[O-] | 2.5
119 | C=CCCO | 1.3
120 | CC(C)(N)CO | 1.07

Row | SMILES | 48 h IGC50 (-log10 mol/L)
121 | CCCCC/C=C/C(C)=O | 3.98
122 | CC(Cl)C(N)=O (configuration not stated) | 1.56
123 | CCOC(=O)/C=C/c1ccccc1 | 3.99
124 | Cc1cc(N)c([N+](=O)[O-])cc1C | 3.45
125 | OCc1cc(Br)ccc1O | 3.34
126 | O=[N+]([O-])c1cc(Cl)cc(Cl)c1[N+](=O)[O-] | 5.42
127 | CCCCC#CC(=O)OCC | 4.11
128 | CC/C=C/CC(=O)O | 2.78
129 | O=[N+]([O-])c1ccccc1CO | 2.85
130 | C=CS(=O)c1ccccc1 (configuration not stated) | 3.16
131 | CC(C)CCO | 1.96
132 | O=C(CBr)c1ccc2ccc3cccc4ccc1c2c34 | 5.39
133 | CC#CC(C)(O)CCC (configuration not stated) | 2.52
134 | CC(C)CCBr | 3.25
135 | O=Cc1ccc(O)cc1Cl | 3.89
136 | CCOS(=O)(=O)OCC | 2.3
137 | Nc1cc([N+](=O)[O-])ccc1Cl | 3.6
138 | CCC#CC(C)=O | 4.32
139 | CCCSc1ccccc1 | 3.86
140 | COCC(C)N (configuration not stated) | 2.17
141 | O=[N+]([O-])c1cc(Br)c(O)c(Br)c1 | 4.36
142 | CCCCCCCCOC(C)=O | 4.06
143 | O=[N+]([O-])c1ccc(I)c([N+](=O)[O-])c1 | 5.12
144 | C/C=C/c1ccc(O)c(OC)c1 | 3.75

Row | SMILES | 48 h IGC50 (-log10 mol/L)
145 | CCCCCC/C=C/C=O | 4.6
146 | CCCCCC(O)CC (configuration not stated) | 2.94
147 | COc1cccc(C=O)c1 | 3.23
148 | CC=CC(=O)OCC(C)C | 2.66
149 | CC(C)(C)c1ccc(N)cc1 | 3.36
150 | CC(C)CC(=O)OCCc1ccccc1 | 4.1
151 | CC(=O)c1cccc([N+](=O)[O-])c1 | 3.32
152 | CCCC(N)CO (configuration not stated) | 2.33
153 | CCCOC(=O)c1ccccc1C(=O)OCCC | 3.98
154 | C=CC(=O)OC | 3.55
155 | Nc1cc(Cl)c(Cl)cc1[N+](=O)[O-] | 4.66
156 | Oc1cc(Cl)cc(Cl)c1 | 4.56
157 | O=C(O)c1cccc(Cl)c1Cl | 2.59
158 | CCCOc1ccc(O)cc1 | 3.52
159 | CCCC(=O)O | 2.43
160 | C=CCCCO | 1.78
161 | CC1CCOC1=O (configuration not stated) | 1.81
162 | C=CC(C)O (configuration not stated) | 1.95
163 | COc1ccccc1Cl | 3.22
164 | Nc1cccc(O)c1 | 2.48
165 | CC(=O)c1cc(C)ccc1O | 3.31
166 | CCCC/C=C/C=O | 4.05
167 | CCCCOc1ccc([N+](=O)[O-])cc1 | 4.42
